The source of these data is patent US6783952B1, “Secreted soluble α2δ-2, α2δ-3 or α2δ-4 calcium channel subunit polypeptides and screening assays using same” (Warner-Lambert Company, priority 1999, dated 2004).

For this assay, the target named is [^3H]gabapentin site in porcine cortical membranes (Sus scrofa, UniProt O77773). The experiment in a line: [3H]gabapentin binding site competition in porcine cortical membranes. The conditions noted are these: read-out: IC50 arithmetic mean (N = 3) ± S.E.M., binding affinity for the [3H]gabapentin site, mean of n = 3 ± S.E.M.
[^3H]gabapentin site in porcine cortical membranes, sequence (O77773 25-1091): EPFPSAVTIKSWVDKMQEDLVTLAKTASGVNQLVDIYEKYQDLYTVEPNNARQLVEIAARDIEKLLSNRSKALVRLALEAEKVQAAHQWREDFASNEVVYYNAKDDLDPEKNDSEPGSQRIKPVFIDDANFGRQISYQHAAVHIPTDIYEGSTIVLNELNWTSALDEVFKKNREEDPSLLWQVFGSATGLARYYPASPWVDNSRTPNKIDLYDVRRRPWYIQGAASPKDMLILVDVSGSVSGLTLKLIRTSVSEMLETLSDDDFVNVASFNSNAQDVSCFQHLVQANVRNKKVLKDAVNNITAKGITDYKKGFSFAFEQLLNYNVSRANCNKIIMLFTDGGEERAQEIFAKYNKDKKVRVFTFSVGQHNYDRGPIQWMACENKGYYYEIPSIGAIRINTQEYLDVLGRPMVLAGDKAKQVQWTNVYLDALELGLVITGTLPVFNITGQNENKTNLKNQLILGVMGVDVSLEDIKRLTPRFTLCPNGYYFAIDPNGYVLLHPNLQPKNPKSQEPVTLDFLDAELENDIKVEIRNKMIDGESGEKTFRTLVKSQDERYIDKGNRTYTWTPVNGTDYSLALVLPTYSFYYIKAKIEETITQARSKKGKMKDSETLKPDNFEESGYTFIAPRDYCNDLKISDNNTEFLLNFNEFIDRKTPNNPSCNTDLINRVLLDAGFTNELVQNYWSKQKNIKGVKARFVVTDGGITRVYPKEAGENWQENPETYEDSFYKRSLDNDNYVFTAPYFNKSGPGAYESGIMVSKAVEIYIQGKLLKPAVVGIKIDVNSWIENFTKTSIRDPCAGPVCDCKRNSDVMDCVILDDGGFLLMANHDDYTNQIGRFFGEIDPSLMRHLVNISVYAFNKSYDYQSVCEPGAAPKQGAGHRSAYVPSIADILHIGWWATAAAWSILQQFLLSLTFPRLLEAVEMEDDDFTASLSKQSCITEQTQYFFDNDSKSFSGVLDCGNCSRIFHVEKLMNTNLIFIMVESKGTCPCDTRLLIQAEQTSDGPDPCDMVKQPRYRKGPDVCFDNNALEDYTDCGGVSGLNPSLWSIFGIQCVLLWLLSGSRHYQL
For `CSCC[C@H](N)C(=O)O` [L-Methionine], the half-inhibitory concentration (IC50) was found to be 0.0496 ± 0.01 µM. In the case of `N[C@@H](Cc1ccccc1)C(=O)O` [L-Phenylalanine], the IC50 came out at 0.351 ± 0.089 µM. Consider `CC(C)C[C@H](N)C(=O)O` [L-Leucine], for which the IC50 turned out to be 0.0613 ± 0.0209 µM. Next, `CC(C)[C@H](N)C(=O)O` [L-Valine]: 0.33 ± 0.018 µM; `CC[C@H](C)[C@H](N)C(=O)O` [L-Isoleucine]: 0.0688 ± 0.0019 µM; `CC[C@@H](C)[C@H](N)C(=O)O` [L-Allo-Isoleucine]: 0.0328 ± 0.006 µM. Next, `CCCC[C@H](N)C(=O)O` [L-Norleucine]: 0.0236 ± 0.0067 µM.
